Read-outs that look alike come from different tables or passages of the source.

The results in this text go back to patent US12145944B2, “Imidazopyrimidines as EED inhibitors and the use thereof” (THE REGENTS OF THE UNIVERSITY OF MICHIGAN, priority 2019, dated 2024).

In assay [1] the test system is KARPAS422 human B cell lymphoma cell. The experiment in a line: Cell proliferation, KARPAS422, 7 day treatment (WST-8). It is filed as cell-based. The following applies: Homo sapiens, KARPAS-422, 168 h, 7 day treatment, read-out: Karpas Cell line. In short, it runs like this:
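KARPAS422 cells seeded at 2 000-3 000 cells/well and exposed to serially diluted compounds for 7 days at 37 °C, 5% CO2. Growth measured by WST-8 (1-4 h, absorbance 450 nm). Readings normalized to DMSO-treated cells; IC50 from nonlinear regression.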

The test system of assay [2] is Pfeiffer cell line. Description: Anti-proliferative activity, Pfeiffer cell line, 7 day treatment. It is filed as cell-based. The following applies: Homo sapiens, 168 h, 7 day treatment, read-out: Pfeiffer Cell line. Here is the method: “N/A” stands for “not assessed”.
To assess the effect of PRC2 inhibition on cell growth, cells were seeded in 96-well cell culture plates at a density of 2 000-3 000 cells/well in 200 µL of culture medium, and treated with serially diluted compounds for 7 days at 37° C. in an atmosphere of 5% CO2. Cell growth was evaluated by a […] WST-8 assay (Dojindo Molecular Technologies) using a Tecan Infinite M1000 multimode microplate reader (Tecan, Morrisville, NC). The WST-8 reagent was added to the plate, incubated for 1-4 h, and read at 450 nm. The readings were normalized to the DMSO-treated cells, and the IC50 was calculated by nonlinear regression analysis using GraphPad Prism 6 software

[3] abbreviates: anti-proliferative IC50, Karpas 422 cell line.
[4] abbreviates: anti-proliferative IC50, Pfeiffer cell line.
Setting [5] is: anti-proliferative IC50 class, Karpas 422 cell line.
[6] abbreviates: anti-proliferative IC50 class, Pfeiffer cell line.

With `Cc1nc2c(s1)-c1cnc(NCc3c(F)ccc4c3CCO4)n3cnc(c13)C(=O)N(C1CC1)C2` [compound 86, 4-cyclopropyl-11-(((5-fluoro-2,3-dihydrobenzofuran-4-yl)methyl)amino)-7-methyl-4,5-dihydro-3H-8-thia-2,4,6,10,11a-pentaazacyclopenta[4,5]cycloocta[1,2,3-cd]inden-3-one], the IC50 stood at 2.29 nM in assay [1] (setting [3]) and 0.021 nM in assay [2] (setting [4]).
Consider `O=C1c2ncn3c(NCc4c(F)ccc5c4CCO5)ncc(c23)-c2nc(C(F)(F)F)ccc2CN1CC1COCCO1` (stereo not shown) [compound 40, 4-((1,4-dioxan-2-yl)methyl)-12-(((5-fluoro-2,3-dihydrobenzofuran-4-yl)methyl)amino)-8-(trifluoromethyl)-4,5-dihydro-3H-2,4,9,11,12a-pentaazabenzo[4,5]cycloocta[1,2,3-cd]inden-3-one], for which the IC50 in assay [1] (setting [3]) was > 100 nM; in assay [2] (setting [4]), 38.8 nM.
Consider `Cc1cnc2n1Cc1cc(C(F)(F)F)ncc1-c1cnc(NCc3c(F)ccc4c3CCO4)n3cnc-2c13` [E 10, N-((5-fluoro-2,3-dihydrobenzofuran-4-yl)methyl)-5-methyl-8-(trifluoromethyl)-6H-2,3,5a,9,12,13a-hexaazabenzo[4,5]cyclopenta[7,8]cycloocta[1,2,3-cd]inden-13-amine], for which the IC50 in assay [1] (setting [5]) and in assay [2] (setting [6]) was 10 to 100 nM in each case.
Turning to `O=C1c2ncn3c(NCc4c(F)ccc5c4CCO5)ncc(c23)-c2ccc(C3CCOCC3)nc2CN1CC(F)(F)F` [E 45, 12-(((5-fluoro-2,3-dihydrobenzofuran-4-yl)methyl)amino)-7-(tetrahydro-2H-pyran-4-yl)-4-(2,2,2-trifluoroethyl)-4,5-dihydro-3H-2,4,6,11,12a-pentaazabenzo[4,5]cycloocta[1,2,3-cd]inden-3-one], the IC50 in assay [1] (setting [5]) and in assay [2] (setting [6]) was < 10 nM throughout.
As for `Cc1ccc2c(n1)CS(=O)(=O)c1ncn3c(NCc4c(F)ccc5c4CCO5)ncc-2c13` [Cpd. No. 95, 11-(((5-fluoro-2,3-dihydrobenzofuran-4-yl)methyl)amino)-6-methyl-4H-3-thia-2,5,10,11a-tetraazadibenzo[cd,f]azulene 3,3-dioxide], the IC50 is 0.89 nM in assay [1] (setting [3]) and 0.023 nM in assay [2] (setting [4]).
Regarding `O=C1OCc2cc(F)ccc2-c2cnc(NCc3c(F)ccc4c3CCO4)n3cnc1c23` [compound 7, 7-fluoro-12-(((5-fluoro-2,3-dihydrobenzofuran-4-yl)methyl)amino)-3H,5H-4-oxa-2,11,12a-triazabenzo[4,5]cycloocta[1,2,3-cd]inden-3-one], the IC50 in assay [1] (setting [3]) came out at 3.35 nM; in assay [2] (setting [4]) it was 0.68 nM.
As to `O=C1OCc2cc(C(F)(F)F)ccc2-c2cnc(NCc3c(F)ccc4c3CCO4)n3cnc1c23` [compound 8, 12-(((5-fluoro-2,3-dihydrobenzofuran-4-yl)methyl)amino)-7-(trifluoromethyl)-3H,5H-4-oxa-2,11,12a-triazabenzo[4,5]cycloocta[1,2,3-cd]inden-3-one], the figures for the IC50 in assay [1] (setting [3]) and in assay [2] (setting [4]) were 2.91 nM and 0.57 nM, respectively.
With `Cc1ccc2c(n1)CN(CC(F)(F)F)C(=O)c1ncn3c(NCc4c(F)ccc5c4CCCO5)ncc-2c13` [E 39, 12-(((6-fluorochroman-5-yl)methyl)amino)-7-methyl-4-(2,2,2-trifluoroethyl)-4,5-dihydro-3H-2,4,6,11,12a-pentaazabenzo[4,5]cycloocta[1,2,3-cd]inden-3-one], the values for the IC50 in assay [1] (setting [5]) and in assay [2] (setting [6]) were 10 to 100 nM and < 10 nM, respectively.
As for `O=S1(=O)Cc2ncccc2-c2cnc(NCc3c(F)ccc4c3CCO4)n3cnc1c23` [compound 94, 11-(((5-fluoro-2,3-dihydrobenzofuran-4-yl)methyl)amino)-4H-3-thia-2,5,10,11a-tetraazadibenzo[cd,f]azulene 3,3-dioxide], the values for the IC50 in assay [1] (setting [3]) and in assay [2] (setting [4]) were 13.9 nM and 0.2 nM, respectively.
For the molecule `Fc1ccc2c(c1CNc1ncc3c4c(ncn14)-c1nccn1Cc1cc(C(F)(F)F)ncc1-3)CCO2` [E 33, N-((5-fluoro-2,3-dihydrobenzofuran-4-yl)methyl)-8-(trifluoromethyl)-6H-2,3,5a,9,12,13a-hexaazabenzo[4,5]cyclopenta[7,8]cycloocta[1,2,3-cd]inden-13-amine], the IC50 in assay [1] (setting [5]) and in assay [2] (setting [6]) was 10 to 100 nM throughout.
With `Cc1ccc2c(n1)CN(CC(F)F)C(=O)c1ncn3c(NCc4c(F)ccc5c4CCO5)ncc-2c13` [E 6, 4-(2,2-difluoroethyl)-12-(((5-fluoro-2,3-dihydrobenzofuran-4-yl)methyl)amino)-7-methyl-4,5-dihydro-3H-2,4,6,11,12a-pentaazabenzo[4,5]cycloocta[1,2,3-cd]inden-3-one], the IC50 in assay [1] (setting [5]) and in assay [2] (setting [6]) was < 10 nM in each case.
On to `O=C1NCc2ccc(C(F)(F)F)cc2-c2cnc(NCc3c(F)ccc4c3CCO4)n3cnc1c23` [compound 26, 12-(((5-fluoro-2,3-dihydrobenzofuran-4-yl)methyl)amino)-8-(trifluoromethyl)-4,5-dihydro-3H-2,4,11,12a-tetraazabenzo[4,5]cycloocta[1,2,3-cd]inden-3-one], for which the results for the IC50 in assay [1] (setting [3]) and in assay [2] (setting [4]) were 41.4 nM and 32.9 nM, respectively.
`Cc1ccc2c(n1)Cc1conc1-c1ncn3c(NCc4c(F)ccc5c4CCO5)ncc-2c13` [E 36, N-((5-fluoro-2,3-dihydrobenzofuran-4-yl)methyl)-8-methyl-6H-4-oxa-2,3,7,12,13a-pentaazabenzo[4,5]cyclopenta[7,8]cycloocta [1,2,3-cd]inden-13-amine]: the IC50 in assay [1] (setting [5]) and in assay [2] (setting [6]) was 10 to 100 nM throughout.
For the molecule `CC1CC(N2Cc3cc(C(F)(F)F)ccc3-c3cnc(NCc4c(F)ccc5c4CCO5)n4cnc(c34)C2=O)CC(C)O1` (stereo not shown) [compound 93, 4-(2,6-dimethyltetrahydro-2H-pyran-4-yl)-12-(((5-fluoro-2,3-dihydrobenzofuran-4-yl)methyl)amino)-7-(trifluoromethyl)-4,5-dihydro-3H-2,4,11,12a-tetraazabenzo [4,5]cycloocta[1,2,3-cd]inden-3-one], the IC50 in assay [1] (setting [3]) was determined as 3.71 nM; in assay [2] (setting [4]), 0.55 nM.
With `CC(C)(C)c1ccc2c(n1)CN(CC(F)(F)F)C(=O)c1ncn3c(NCc4c(F)ccc5c4CCO5)ncc-2c13` [E 50, 7-(tert-butyl)-12-(((5-fluoro-2,3-dihydrobenzofuran-4-yl)methyl)amino)-4-(2,2,2-trifluoroethyl)-4,5-dihydro-3H-2,4,6,11,12a-pentaazabenzo[4,5]cycloocta[1,2,3-cd]inden-3-one], the IC50 in assay [1] (setting [5]) and in assay [2] (setting [6]) was < 10 nM in each case.
For `O=C1OCc2nc(C(F)(F)F)ccc2-c2cnc(NCc3c(F)ccc4c3CCO4)n3cnc1c23` [compound 14, 12-(((5-fluoro-2,3-dihydrobenzofuran-4-yl)methyl)amino)-7-(trifluoromethyl)-3H,5H-4-oxa-2,6,11,12a-tetraazabenzo[4,5]cycloocta[1,2,3-cd]inden-3-one], the IC50 in assay [1] (setting [3]) came out at 3.49 nM; in assay [2] (setting [4]), 0.36 nM.
The matching figures for `O=C1NCc2cc(F)ccc2-c2cnc(NCc3c(F)ccc4c3CCO4)n3cnc1c23` [compound 17, 7-fluoro-12-(((5-fluoro-2,3-dihydrobenzofuran-4-yl)methyl)amino)-4,5-dihydro-3H-2,4,11,12a-tetraazabenzo[4,5]cycloocta[1,2,3-cd]inden-3-one]: 20.5 nM and 4.17 nM.
